pIC50: −log10 of the molar value.

As a reminder, the pIC50 is −log10 of the IC50, conventionally taken in molar units.

For the first test, the system named is A431 cells. Description: Assay for total NADH and NAD+ measurements in cells. It is filed as cell-based. More on the design: C: change in NAD levels in response to test compound, shown as % of NAD activity in the absence of test compound: concentration or dose not given beside the values. Particulars: percent of NAD level of untreated control cells (100 = no change). The protocol:
2,000 cells/well and, at the same time, test compounds dissolved in media at the desired concentration were added to each well. The treated cells were incubated overnight in C02 incubator. The cells were washed 6 times with PBS with 1 mM CaCl2) and 1 mM MgCl2. In the last wash, 10 μL of PBS with 1 mM CaCl2) and 1 mM MgCl2 per well were left in each well. Immediately thereafter, 10 μL 0.4% dodecyltrimethylammonium bromide (DTAB) in phosphate buffer pH 8.0 as added, and the plates were shaked at 1000 rpm for 5 minutes. 60 μL reaction mix was added, and fluorescence at Ex/Em 530/585 was immediately monitored. A linear increase should be achieved with 8 cycles every 92 seconds, 10 number of flashes/well/cycle. The reaction mix was prepared per the following table, respecting the amount and order in which each component was added:
All assays were performed in A431 cells. Referring to the tables below, activity: “+” ≥25 μM, “++” ≥1 μM and <25 μM, and “+++”<1 μM.
(§1) In each table header, A: NAMPT enzyme inhibitory activity, IC50 (μM); B: Cellular NAD inhibitory activity, IC50 (μM); and C: change in NAD levels in response to test compound, shown as % of NAD activity in the absence of test compound. […] A percentage of 100 percent would indicate no increase or decrease in NAD levels as compared to that measured for untreated control cells, while a percentage of 50 percent would indicate a decrease in NAD levels of 50 percent as compared to that measured for untreated control cells.
Consider `CNC(=O)N1CCC(C(=O)Nc2ccc3nc(-c4ccc(F)cc4)c(-c4ccc(F)cc4)nc3c2)CC1` [BC19311], for which the “C: change in NAD levels in response to test compound, shown as % of NAD activity in the absence of test compound” value was 63%.
Same read-out and setting: under `Fc1ccc(-c2nc3ccc(-c4nnnn4CCN4CCOCC4)cc3nc2-c2ccc(F)cc2)cc1` [BC19238] stands 68%; under `CN1CCC(C(=O)Nc2ccc3nc(-c4ccc(F)cc4)c(-c4ccc(F)cc4)nc3c2)CC1` [BC19309], 18%; under `Cn1cnnc1-c1cnc2nc(-c3ccc(F)cc3)c(-c3ccc(F)cc3)nc2c1` [BC19496], 95%.
As to `CCNS(=O)(=O)c1ccc2nc(-c3ccc(F)cc3)c(-c3ccc(F)cc3)nc2c1` [BC19556], the “C: change in NAD levels in response to test compound, shown as % of NAD activity in the absence of test compound” value is given as 44%.
For `Cc1ccc(S(=O)(=O)c2nc3cc(C(=O)N4CCN(C)CC4)ccc3nc2-c2ccc(F)cc2)cc1` [BC19308], the “C: change in NAD levels in response to test compound, shown as % of NAD activity in the absence of test compound” value was determined as 48%.
For the molecule `CN1CCN(C(=O)c2ccc3nc(-c4ccc(Cl)cc4)c(-c4ccc(Cl)cc4)nc3c2)CC1` [BC19450], the “C: change in NAD levels in response to test compound, shown as % of NAD activity in the absence of test compound” value is 78%.
With `Cn1cnnc1-c1ccc2nc(-c3ccc(F)cc3)c(-c3ccc(F)cc3)nc2c1` [BC19101], the “C: change in NAD levels in response to test compound, shown as % of NAD activity in the absence of test compound” value came to 53%.
With `O=C(NCc1cccnc1)Nc1ccc2nc(-c3ccc(F)cc3)c(-c3ccc(F)cc3)nc2c1` [BC19571], the “C: change in NAD levels in response to test compound, shown as % of NAD activity in the absence of test compound” value is listed as 10%.
On to `O=C(NCCO)c1ccc2nc(-c3ccc(OC(F)(F)F)cc3)c(-c3ccc(OC(F)(F)F)cc3)nc2c1` [BC19453], for which the “C: change in NAD levels in response to test compound, shown as % of NAD activity in the absence of test compound” value amounted to 88%.
In the case of `OCCCn1c(-c2ccc3nc(-c4ccc(F)cc4)c(-c4ccc(F)cc4)nc3c2)n[nH]c1=S` [BC19664], the “C: change in NAD levels in response to test compound, shown as % of NAD activity in the absence of test compound” value came to 70%.
Still for that read-out and setting: for `OCCn1ncc(-c2ccc3nc(-c4ccc(F)cc4)c(-c4ccc(F)cc4)nc3c2)n1` [BC19404] the value was 65%; for `CN1CCN(C(=O)c2ccc3nc(-c4ccc(F)cc4)c(Nc4ccc(F)cc4)nc3c2)CC1` [BC19578], 89%.
`CCCn1cc(-c2cnc3nc(-c4ccc(F)cc4)c(-c4ccc(F)cc4)nc3c2)nn1` [BC19402]: the “C: change in NAD levels in response to test compound, shown as % of NAD activity in the absence of test compound” value was determined as 64%.
For `CN1CCN(C(=O)c2ccc3nc(-c4ccc(F)cc4)c(-c4ccc(OC(F)(F)F)cc4)nc3c2)CC1` [BC19399], the “C: change in NAD levels in response to test compound, shown as % of NAD activity in the absence of test compound” value worked out at 92%.
`CN1CCN(C(=O)c2ccc3nc(-c4ccc(F)cc4)c(-c4ccc(Cl)cc4Cl)nc3c2)CC1` [BC19398]: the “C: change in NAD levels in response to test compound, shown as % of NAD activity in the absence of test compound” value is given as 94%.
For the molecule `CC(=O)N1CCN(c2ccc3nc(-c4ccc(F)cc4)c(-c4ccc(F)cc4)nc3c2)CC1` [BC19511], the “C: change in NAD levels in response to test compound, shown as % of NAD activity in the absence of test compound” value was 26%.
As to `C#CCNC(=O)c1ccc2nc(-c3cccs3)c(-c3ccc(F)cc3)nc2c1` [BC19120], the “C: change in NAD levels in response to test compound, shown as % of NAD activity in the absence of test compound” value worked out at 84%.
Same read-out and setting: for `C#CCNC(=O)c1ccc2nc(-c3ccc(F)cc3F)c(-c3ccccc3)nc2c1` [BC19406] the value was 93%; for `Cn1nnnc1-c1ccc2nc(C(F)(F)F)c(-c3ccc(F)cc3)nc2c1` [BC19112], 86%.

The target in a further test is NAMPT (Homo sapiens, UniProt P43490). As to the kind of experiment: Assay for in vitro NAMPT activity via NMN assessment. Type of test: biochemical. The conditions noted are these: read-out: A: NAMPT enzyme inhibitory activity, IC50. The protocol: The following were added to a well: 20 μL 2× test compound in Basic Buffer (0.02% BSA, 2 mM DTT, 12 mM MgCl2, 50 mM Tris pH7.5); 10 μL 8 μg/mL NAMPT, and 200 μM PRPP working solution (or PRPP working solution to background wells). 10 μL 100 μM NAM working solution was added to start the reaction. The plate was sealed and incubated for 45 minutes at 37° C. After incubation, 10 μL 20% acetophenone in DMSO, 10 μL 2N KOH, and 20 μL 88% formic acid were added. The plate was sealed and incubated for 30 minutes at 37° C. After incubation, fluorescence at Ex/Em 387/441 was read.
NAMPT, sequence (P43490 whole entry, species assumed): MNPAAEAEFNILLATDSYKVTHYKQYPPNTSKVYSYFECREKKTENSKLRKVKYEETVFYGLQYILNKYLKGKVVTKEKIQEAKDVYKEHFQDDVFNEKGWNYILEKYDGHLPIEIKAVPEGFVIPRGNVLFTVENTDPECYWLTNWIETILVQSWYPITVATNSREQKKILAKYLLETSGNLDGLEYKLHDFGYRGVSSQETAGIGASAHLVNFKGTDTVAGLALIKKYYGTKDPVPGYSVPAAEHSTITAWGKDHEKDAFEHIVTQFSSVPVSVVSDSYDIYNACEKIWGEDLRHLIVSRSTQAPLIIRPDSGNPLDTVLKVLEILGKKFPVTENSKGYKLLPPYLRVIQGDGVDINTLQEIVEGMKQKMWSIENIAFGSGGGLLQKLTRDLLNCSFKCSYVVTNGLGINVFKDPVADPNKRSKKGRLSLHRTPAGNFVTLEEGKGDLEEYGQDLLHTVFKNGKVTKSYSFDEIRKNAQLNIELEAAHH
as §1
Regarding `C#CCNC(=O)Nc1cnc2nc(-c3ccc(F)cc3)c(-c3ccc(F)cc3)nc2c1` [BC20297], the pIC50 was no more than 4.60.
On the same count and under the same terms, under `CN1CCCC(NC(=O)Nc2cnc3nc(-c4ccc(F)cc4)c(-c4ccc(F)cc4)nc3c2)C1` (stereo not shown) [BC20269] stands no more than 4.60.
Still for that read-out and setting: for `COCC(=O)N1CCC[C@H](CNC(=O)c2ccc3nc(-c4ccc(F)cc4)c(-c4ccc(F)cc4)nc3c2)C1` [BC20281] the value was no more than 4.60; for `C#CCNC(=O)c1ccc2nc(-c3cccc(CNC(=O)COC)c3)c(-c3cccc(CNC(=O)COC)c3)nc2c1` [BC20275], no more than 4.60; for `CC(=O)N1CCC[C@H](CNC(=O)Nc2ccc3nc(-c4ccc(F)cc4)c(-c4ccc(F)cc4)nc3c2)C1` [BC20299], 4.60 to 6.00.
The same measure, in the same setting: for `CN1CCN(C(=O)c2ccc3nc(-c4ccc(F)cc4)c(-c4cccc(CN5CCCC5)c4)nc3c2)CC1` [BC20265] the value was no more than 4.60; for `C#CCNC(=O)c1ccc2nc(-c3cccc(NS(C)(=O)=O)c3)c(-c3cccc(NS(C)(=O)=O)c3)nc2c1` [BC20288], no more than 4.60; for `CN1CCC[C@H](CNC(=O)NCc2ccc3nc(-c4ccc(F)cc4)c(-c4ccc(F)cc4)nc3c2)C1` [BC20294], no more than 4.60.
Take `C#CCNC(=O)c1ccc2nc(-c3cccc(NC(=O)CN(C)C)c3)c(-c3ccc(F)cc3)nc2c1` [BC20266]: the pIC50 is no more than 4.60.
In the case of `CN1CCN(C(=O)c2ccc3nc(-c4cccc(N(C)C)c4)c(-c4ccc(F)cc4)nc3c2)CC1` [BC20246], the pIC50 is no more than 4.60.
In the case of `O=C(NC[C@H]1CCCNC1)c1ccc2nc(-c3ccc(F)cc3)c(-c3ccc(F)cc3)nc2c1` [BC20279], the pIC50 is no more than 4.60.
Take `COCC(=O)Nc1cccc(-c2nc3cc(C(=O)N4CCN(C)CC4)ccc3nc2-c2ccc(F)cc2)c1` [BC20209]: the pIC50 is no more than 4.60.
The same measure, in the same setting: under `CN(C)Cc1cccc(-c2nc3ccc(C(=O)N4CCN(C)CC4)cc3nc2-c2ccc(F)cc2)c1` [BC20307] stands no more than 4.60.
Still for that read-out and setting: under `CS(=O)(=O)N1CCCC(NC(=O)Nc2cnc3nc(-c4ccc(F)cc4)c(-c4ccc(F)cc4)nc3c2)C1` (stereo not shown) [BC20256] stands 4.60 to 6.00.
For `O=C1N(Cc2cccnc2)CCN1c1cnc2nc(-c3ccc(F)cc3)c(-c3ccc(F)cc3)nc2c1` [BC20291], the negative logarithm of the IC50 (pIC50) was no more than 4.60.
Consider `Fc1ccc(-c2nc3cc4[nH]c(=S)n(CCc5cccnc5)c4nc3nc2-c2ccc(F)cc2)cc1` [BC20305], for which the pIC50 was no more than 4.60.
`CN(C)CC(=O)Nc1cccc(-c2nc3cc(C(=O)N4CCN(C)CC4)ccc3nc2-c2ccc(F)cc2)c1` [BC20229]: the pIC50 is no more than 4.60.
`C#CCNC(=O)c1ccc2nc(-c3cccc(NS(C)(=O)=O)c3)c(-c3ccc(F)cc3)nc2c1` [BC20247]: the pIC50 is 4.60 to 6.00.
The same measure, in the same setting: for `COCCNC(=O)Nc1cnc2nc(-c3ccc(F)cc3)c(-c3ccc(F)cc3)nc2c1` [BC20298] the value was no more than 4.60.
On to `CC(=O)NCc1cccc(-c2nc3ccc(C(=O)N4CCN(C)CC4)cc3nc2-c2cccc(CNC(C)=O)c2)c1` [BC20272], for which the pIC50 is no more than 4.60.
For the molecule `C#CCNC(=O)c1ccc2nc(-c3ccc(F)cc3)c(-c3cccc(NC(=O)COC)c3)nc2c1` [BC20211], the pIC50 is no more than 4.60.
Consider `CCCC(=O)N1CCC[C@H](CNC(=O)c2ccc3nc(-c4ccc(F)cc4)c(-c4ccc(F)cc4)nc3c2)C1` [BC20283], for which the pIC50 was no more than 4.60.
As for `C#CCNC(=O)c1ccc2nc(-c3cccc(CN(C)C)c3)c(-c3ccc(F)cc3)nc2c1` [BC20234], the negative logarithm of the IC50 (pIC50) was no more than 4.60.
The same measure, in the same setting: for `COCC(=O)NCc1cccc(-c2nc3ccc(C(=O)N4CCN(C)CC4)cc3nc2-c2ccc(F)cc2)c1` [BC20296] the value was no more than 4.60; for `O=C(NCc1cccnc1)c1cnc2nc(-c3ccc(F)cc3)c(-c3ccc(F)cc3)nc2c1` [BC20203], 4.60 to 6.00; for `CN1CCN(Cc2cccc(-c3nc4cc(C(=O)N5CCN(C)CC5)ccc4nc3-c3ccc(F)cc3)c2)CC1` [BC20232], no more than 4.60.
As for `O=C(NCc1ccncc1)c1cnc2nc(-c3ccc(F)cc3)c(-c3ccc(F)cc3)nc2c1` [BC20204], the negative logarithm of the IC50 (pIC50) is no more than 4.60.
`O=C1N(Cc2cccnc2)CCN1c1ccc2nc(-c3ccc(F)cc3)c(-c3ccc(F)cc3)nc2c1` [BC20277]: the pIC50 is 4.60 to 6.00.
As to `CN1CCCC(NC(=O)Nc2ccc3nc(-c4ccc(F)cc4)c(-c4ccc(F)cc4)nc3c2)C1` (stereo not shown) [BC20237], the pIC50 was no more than 4.60.
Still for that read-out and setting: for `C#CCNC(=O)c1ccc2nc(-c3ccc(F)cc3)c(-c3cccc(CN(C)C)c3)nc2c1` [BC20233] the value was no more than 4.60; for `COCC(=O)Nc1cccc(-c2nc3ccc(C(=O)N4CCN(C)CC4)cc3nc2-c2ccc(F)cc2)c1` [BC20245], no more than 4.60; for `C#CCNC(=O)c1ccc2nc(-c3ccc(F)cc3)c(-c3cccc(N(C)C)c3)nc2c1` [BC20244], no more than 4.60.

(Values after US20230321086A1, “METHODS AND MATERIALS FOR INHIBITING NICOTINAMIDE PHOSPHORIBOSYLTRANSFERASE ACTIVITY” (Universiy of Pittsburgh - Of the Commonwealth System of …, priority 2020, published 2023).)
